Experimental data as given in patent publication US11331368B2, “Angiotensin receptor agonists and uses thereof” (Monash University, priority 2017, dated 2022).
Square brackets hold non-standard residues; d marks the D form. Primed or numbered codes have the meaning given here. Ends that are not written are not given here. βVal″ = beta-form valine

How the values were obtained:
[1] = test system: human cardiac fibroblasts; experiment: TGF-β1-induced collagen production in human cardiac fibroblasts (Western blot); format: cell-based; settings: co-treated with TGF-β1 for 3 days, increasing concentrations up to 1 μM
Protocol: D) Human cardiac fibroblasts (HCFs) were treated with TGFβ1 to induce a pro-fibrotic phenotype state in cell culture, exemplified by increased collagen-1 production, measured by Western blot. HCFs were treated with TGFβ1 alone, or in the presence of an AT2R agonist for 3 days, and the ability of AT2R agonists to inhibit TGFβ1-induced collagen-1 production was measured.
Commercially available human cardiac fibroblasts (HCF, Catalog #6300, Sciencell, Calif., USA) were grown in T75 flask maintained in an incubator at 37° C., 5% CO2. Complete media composition: M199 media (#11150-059, life technologies)+10% FBS (#10437-028, life technologies)+1% Fibroblast Growth Supplement-2 (#2382, ScienCell)+1% penicillin/streptomycin 10,000 U/ml antibiotics (#15140-122, Life Technologies). Fresh complete media was replenished every alternate day until culture reached 70% confluence in which media is replenished daily until it reached approximately 90% confluence in order to passage/subculture. To subculture, media was discarded and culture was rinsed with warm PBS. After which, culture was detached using warm 0.05% Trypsin+EDTA with gentle swirling of flask to make sure cells were not adherent to surface of flask. Trypsin was then neutralized with complete media and suspension was then transferred into a new falcon tube and centrifuged at 1000 rpm for 5 minutes. Supernatant was discarded and pellet of cells were resuspended with 5 ml of complete media, followed by cell counting. For subculturing/passaging, 1 million HCFs are placed into a T75 flask. For Picrosirius Red (PSR) staining or immunofluorescence experiments, 100 k cells were loaded per well in a 24 well plate lined with round coverslips. […]
Once treatment is complete, cells were washed with warm PBS and detached using Accutase (A6964, Sigma), with 5 minutes incubation at 37° C. […] The supernatant (˜20 ul) was transferred to a new tube and protein concentrations were measured using Biorad Lowry protein assay. Protein quantification of respective markers were performed via standard western blot analysis. […]

[2] = test system: male FVB/N mice on high salt diet, kidney; experiment: High salt (5%) diet intervention model, kidney; format: in vivo, mouse; settings: 75 pmol/kg/min s.c., weeks 5-8
human AT1R = biological target: T1, human AT1R (Homo sapiens, UniProt P30556); experiment: Competition radioligand binding (125I-Sar1-Ile8-AngII) in AT1R-transfected HEK-293 cells
T1 construct: expressed in transfected cells
T1 sequence (P30556 1-359): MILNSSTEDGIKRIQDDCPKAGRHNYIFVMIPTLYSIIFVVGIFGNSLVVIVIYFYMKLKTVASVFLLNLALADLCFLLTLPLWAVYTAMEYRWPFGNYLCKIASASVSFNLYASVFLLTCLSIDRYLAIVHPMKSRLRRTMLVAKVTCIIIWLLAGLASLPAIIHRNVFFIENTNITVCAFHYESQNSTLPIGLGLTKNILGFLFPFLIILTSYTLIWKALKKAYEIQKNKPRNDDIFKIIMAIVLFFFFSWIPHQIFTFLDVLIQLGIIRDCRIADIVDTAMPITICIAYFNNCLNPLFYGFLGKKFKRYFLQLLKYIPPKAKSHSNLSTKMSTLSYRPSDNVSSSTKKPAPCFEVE

human AT2R = biological target: T2, human AT2R (Homo sapiens, UniProt P50052); experiment: Competition radioligand binding (125I-Sar1-Ile8-AngII) in AT2R-transfected HEK-293 cells; settings: for Fold AT2R selectivity: AT2R over AT1R, Table 3; for binding at AT2R (displacement of 125I-Sar1-Ile8-AngII), in words: transfected HEK-293 cells
T2 construct: expressed in transfected cells
T2 sequence (P50052 1-363): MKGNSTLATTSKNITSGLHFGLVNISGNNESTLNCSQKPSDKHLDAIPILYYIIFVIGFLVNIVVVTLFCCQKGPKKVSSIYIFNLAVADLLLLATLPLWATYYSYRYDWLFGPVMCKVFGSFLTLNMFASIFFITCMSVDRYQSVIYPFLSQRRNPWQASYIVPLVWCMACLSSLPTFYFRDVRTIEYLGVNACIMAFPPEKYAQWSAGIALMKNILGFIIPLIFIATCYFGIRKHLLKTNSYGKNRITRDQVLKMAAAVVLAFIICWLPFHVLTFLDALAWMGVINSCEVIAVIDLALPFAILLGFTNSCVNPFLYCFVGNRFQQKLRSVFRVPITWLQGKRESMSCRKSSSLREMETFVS

[3] = test system: male FVB/N mice on high salt diet, heart; experiment: High salt (5%) diet intervention model, heart; format: in vivo, mouse; settings: for cardiac fibrosis by hydroxyproline analysis (LV collagen content) / cardiac oxidative stress (DHE staining) / myofibroblast differentiation in heart (α-SMA): 75 pmol/kg/min s.c.; for cardiac fibrosis by hydroxyproline analysis (LV collagen content) / cardiac oxidative stress (DHE staining) / myofibroblast differentiation in heart (α-SMA) / expression of P-IκBα (marker for NFκB activation) in heart: weeks 5-8; for expression of P-IκBα (marker for NFκB activation) in heart: peptides 75 pmol/kg/min s.c., captopril 3 mg/kg/day; for expression of P-IκBα (marker for NFκB activation) in heart / cardiac fibrosis (picrosirius red): Cand 2 mg/kg/day; for cardiac fibrosis (picrosirius red): weeks 5-8 of high salt diet, peptides 75 pmol/kg/min s.c. mini-pump, captopril 3 mg/kg/day in drinking water
Protocol: (§1) C) In the intervention (or reversal) model, male FVB/N mice were treated with selective AT2Rs agonists after the establishment of cardiovascular disease using a high salt diet, in order to reverse cardiovascular pathologies. In some experiments, the ACE inhibitor captopril (dose) or the ARB candesartan cilexetil (dose) were given for 4 weeks in drinking water. Organs examined included heart, kidney and liver and these were compared to either untreated mice or high salt-fed mice that were treated with saline.
A high-salt diet (5% salt) model is a clinically relevant and disease-reversal model which can replicate the high salt intake by humans which is currently a growing problem in the developed countries. High salt intake induces changes in the cardiovascular system and induces remodelling and fibrosis in the heart, kidney and liver.
(§2) Mice were placed on either a normal rodent diet (0.35% NaCl) which acted as control or a high salt diet (5% sodium in food chow) for 8 weeks. After 4 weeks, mice were also treated subcutaneously (via osmotic mini-pump) with either saline or an AT2R agonist (75 pmol/kg/min subcutaneously) for 4 weeks. Mice continued to be fed a high salt diet whilst receiving these treatments.
All mice which underwent surgery were anaesthetized with Isoflurane (Isorrane) (5% induction and 2.5% maintenance) and an incision made in the midscapular region through which osmotic minipumps (Alzet model 2004, Alza Corp) were inserted for subcutaneous drug administration. The incision area was sutured with 6/0 DY silk (Dynek Pty Ltd) and antibiotic powder applied (Cicatrin, Pfizer) followed by intramuscular injection of the analgesic Cartrophen (0.1 ml of a 1.5 mg/ml stock solution; Biopharm Australia). Systolic blood pressure (SBP) was measured using non-invasive tail-cuff plethysmography apparatus (MC4000 Blood Pressure Analysis System, Hatteras Instrument Inc) before drug treatment (week 0), and then fortnightly. At the end of the 8 week treatment period mice were weighed before being killed by overdose of isoflurane inhalation and cervical dislocation.
(§3) To measure collagen deposition, frozen sections of heart, kidney or aorta (all 5 μm thickness) were air dried for 10 minutes and were brought through 3 times xylene (2 minutes each), and 3 times absolute alcohol washes before being rinsed in tap H2O for 30 seconds. Staining with an optimal concentration of picrosirius red (in this instance 0.05% picrosirius red diluted in saturated picric acid) was performed and left for an hour. Sections were then rinsed in water and differentiated in 0.01M HCl for 2 minutes, followed by dehydration via 3 times absolute alcohol washes. Then, slides were brought through 3 times xylene washes before being cover slipped according to standard histological techniques using DPX as the mounting medium. Images were taken under ×20 magnification, using bright field (Olympus, BX51) and circularized polarized light microscopy (DM IRB, Leica) while percentage of positive interstitial collagen staining per total field of view was quantified using ImageJ 1.46 software (Java, NIH), and averaged out from a total of eight views as the final percentage collagen content in a particular animal.
Immunostaining was performed on 5 μm thick transverse frozen heart sections. These sections were air dried and fixed in ice-cold acetone for approximately 15 minutes before washing with 0.01M PBS buffer (3×10 minutes). Sections were then incubated with 10% goat serum in 0.01M PBS for 30 minutes to reduce non-specific binding. If the primary antibody is raised in goat, this pre-blocked medium is substituted with 5% BSA in PBS and Triton-X. Next, blocking buffers were removed and the primary antibody to respective markers were applied overnight at room temperature based on the following dilution and origin of the antibodies: α-SMA (1:500, Abcam), Vimentin (1:500, Santa Cruz), P-IκBα (1:200, Cell Signalling), F4/80 macrophage (1:100, Serotec). […]

[4] = test system: male FVB/N mice on high salt diet, kidney; experiment: High salt (5%) diet intervention model, kidney; format: in vivo, mouse; settings: 75 pmol/kg/min s.c., weeks 5-8; remark: listed apart in the source
Protocol: as §1, §2, §3
Kidney sections used either picrosirius red staining as described above or using Mason's Trichrome staining as described below.
Formalin fixed, paraffin embedded kidneys were sectioned at thickness of 4 μm and were stained with Masson's trichrome according to standard procedures for analysis of kidney fibrosis. […] Sections were re-fixed in Bouin's solution for 1 hour at 56° C. to improve staining quality then rinsed in running tap water for 5-10 minutes to remove yellow colour. Following this, sections were stained in Weigert's iron hematoxylin working solution for 10 minutes. Rinsed in running warm tap water for 10 minutes. Washed in distilled water. Stained in Biebrich scarlet-acid fuchsin solution for 10-15 minutes. Washed in distilled water. Differentiated in phosphomolybdic-phosphotungstic acid solution for 10-15 minutes or until collagen was no longer red. Sections were transferred directly (without rinse) to aniline blue solution and stained for 5-10 minutes. Rinsed briefly in distilled water and differentiated in 1% acetic acid solution for 2-5 minutes. Washed in distilled water. […] Mounted with DPX mounting medium.
Quantification of kidney fibrosis was performed using images captured with the Aperio scanner (Monash Histology Platform, Monash University), with ×5 magnification. Each kidney section had 5 different fields of view photographed at this magnification. Percentage of tubulointerstitial collagen was analysed and quantified using ImageJ 1.48 software (Java, NIH), and the percentage from 5 random fields of view were averaged for final percentage of collagen for that particular animal. All analysis of collagen expression was conducted in a blinded fashion.

| Substance | TGF-β1-induced collagen production [1] | macrophage infiltration in kidney (F4/80) [2] | renal fibrosis by hydroxyproline analysis [2] | renal inflammation (phospho-IκBα expression) [2] | binding at AT1R (displacement of 125I-Sar1-Ile8-AngII), in words (human AT1R) | Fold AT2R selectivity (human AT2R) | binding at AT2R (displacement of 125I-Sar1-Ile8-AngII), in words (human AT2R) | cardiac fibrosis by hydroxyproline analysis (LV collagen content) [3] | cardiac oxidative stress (DHE staining) [3] | myofibroblast differentiation in heart (α-SMA) [3] | expression of P-IκBα (marker for NFκB activation) in heart [3] | cardiac fibrosis (picrosirius red) [3] | kidney glomerular fibrosis (picrosirius red) [4] | kidney tubulointerstitial fibrosis (picrosirius red) [4] | AT2R/AT1R selectivity ratio (human AT2R; approximate or conservatively estimated, listed as β-Pro^7-Trp^8-Ang III) |
| --- | --- | --- | --- | --- | --- | --- | --- | --- | --- | --- | --- | --- | --- | --- | --- |
| β-Val^3-Ang II: β-substituted Ang II peptide which only has ~50-fold AT2R:AT1R selectivity (DR[βVal″]YIHPF) | failed to inhibit |  |  |  |  |  |  |  |  |  |  |  |  |  |  |
| D-Arg-Val-Tyr-Ile-His-β-Pro-Trp [D-Arg-βPro-Trp-8-Ang III] |  | reversed high salt-induced macrophage infiltration in the kidney | reversed the pro-fibrotic effects of high salt in the kidney | reversed high salt-induced renal inflammation in the kidney | bind poorly | >18,000 fold | high affinity | reversed the pro-fibrotic effects of high salt in the heart | reversed the oxidative stress effects of high salt in the heart | reversed myofibroblast differentiation | reversed | reversed cardiac fibrosis | reversed the glomerular fibrosis caused by high salt in the kidney | reversed the tubulointerstitial fibrosis caused by high salt in the kidney |  |
| Arg-Val-Tyr-Ile-His-β-Pro-Trp [βPro-Trβ-8-Ang III] |  | reversed high salt-induced macrophage infiltration in the kidney | reversed the pro-fibrotic effects of high salt in the kidney | reversed high salt-induced renal inflammation in the kidney | bind poorly | >400,000 fold | high affinity | reversed the pro-fibrotic effects of high salt in the heart | reversed the oxidative stress effects of high salt in the heart | reversed myofibroblast differentiation | reversed | reversed cardiac fibrosis | reversed the glomerular fibrosis caused by high salt in the kidney | reversed the tubulointerstitial fibrosis caused by high salt in the kidney | > 400,000 fold |
